Tested on: log phase NDM-1 Klebsiella Pneumoniae (BAA2473 strain)
Assay: Time-kill method over 24 hours against log phase NDM-1 Klebsiella pneumoniae (CFU counts)
Format: cell-based
Conditions: perphenazine alone at 128 mg/L, FIG. 1
Procedure: The objective of this example was to test the synergistic effect of perphenazine and colistin (in the form of colistimethate sodium) in combination against log phase NDM-1 Klebsiella Pneumoniae by time-kill methods over a time period of 24 hours. As described hereinabove, time-kill methods are another accepted test for ascertaining the presence or absence of synergy, and involve comparing the dynamic effect of a drug combination with each drug alone when assessing the effect on bacterial log or stationary-growth over time.
Materials and Methods • 1. Bacterial strain used: BAA2473 strain of Klebsiella pneumoniae • 2. Growth of bacteria: Log phase growth of BAA2473 was carried out according to known methods in the art, e.g. SOP R-005-00 Log Phase Growth of Bacteria. • 3. Compound preparation: • i. Perphenazine was ordered from Sigma Aldrich® UK. • ii. Colistin was obtained as Colistimethate sodium (Forest Laboratories UK 1 million I. U. 80 mg). • 4. The overnight culture was diluted with nutrient broth (Oxoid) to […] and 280 μl and 290 ul of the culture was added to each combination well and drug respectively, to make the final concentration of 300 μl. • 5. Incubation of the compounds with the bacterial suspension was carried out for 24 hours. At 0, 2, 4, 7 and 24 hours, CFU counts were performed to measure the kill effects of the drug combination.

OCCN1CCN(CCCN2c3ccccc3Sc3ccc(Cl)cc32)CC1 [perphenazine, 2-[4-[3-(2-chloro-10H-phenothiazin-10-yl)propyl]piperazin-1-yl]ethanol]
effect against NDM-1 K. pneumoniae (time-kill, Log CFU/ml): little or no effect

— patent US20190328832A1, “ANTIMICROBIAL COMBINATIONS” (HELPERBY THERAPEUTICS LIMITED, priority 2016, published 2019)
